Four molecules from patent publication US20210032598A1, “ACTIVATION-INDUCED TISSUE-EFFECTOR CELLS SUITABLE FOR CELL THERAPY AND EXTRACELLUAR VESICLES DERIVED THEREFROM” (Capricor, Inc., priority 2018, published 2021) can be followed below.

The test system of assay [1] is β-catenin levels in explant-derived cells (EDCs). Kind of assay: β-catenin ELISA in explant-derived cells (EDCs). The settings on record: EDCs from Donor1 and Donor12; BIO for 72 hours compared with sphere formation. Format: cell-based, human.
The test system of assay [2] is β-catenin levels in immortalized CDCs. Put plainly: Total β-catenin ELISA in immortalized CDCs. Format: cell-based, human. The note with it: SV40 T+t immortalized CDCs from Donor2; 5 μM BIO for 72 hours vs 0 μM. The method, then:
(§1) Cell lysate and protein assay. 4×10^5 cells were collected and pelleted at 1,000 rpm for 5 min at 4° C. Cell pellets were thoroughly mixed with 1× lysis buffer (Affymetrix eBioscience InstantOne ELISA kit) by vortexing and rotating for 10 min at room temperature. Protein lysate was isolated from the cell lysate mixture after centrifugation at 14,000 rpm for 15 min at 4° C. Protein concentration was determined by DC™ Protein Assay kit (Bio-Rad).
(§2) ELISA. Protein collection and protein concentration determination were as described above. Total β-catenin ELISA was performed according the protocol described with final sample concentration of 0.01 mg/ml and positive control of 0.1 mg/ml (ThermoFisher eBioscience InstantOne™ ELISA).

Assay [3] concerns β-catenin levels in kidney cortex cells. Kind of assay: β-catenin levels in kidney cortex cells. Format: cell-based. The settings on record: FIG. 18B.
The next assay has as its system CD90 expression in CDCs. Put plainly: Flow cytometry of CD90 expression in CDCs. Format: cell-based, human. The procedure: Referring to FIG. 2, CDCs from two donors (Donor1 and Donor12) were prepared as described herein. The attached CDCs were treated with 30 μM CHIR (Selleckchem, Cat. #S1263), a GSK3β inhibitor, or with no treatment for 72 hours. The cells were then collected, washed with 1% bovine serum albumin (BSA) in 1× phosphated-buffered saline (PBS), and stained with FITC Mouse Anti-Human CD90 (BD Biosciences, Cat. #555595). Flow cytometry was then conducted in BD FACSCanton™ II machine to measure CD90 expression in cells.
(§3) Referring to FIG. 9B, CDCs from Donor 5 were treated with different concentrations of BIO (Sigma-Aldaich, Cat #B1685), a GSK3β inhibitor, for 72 hours. The cells were then collected and lysed with 1× lysis buffer supplied Total β-catenin ELISA (Affymetrix eBioscience InstantOne™ ELISA, Cat. #85-86141-11). Total β-catenin ELISA was performed as per manufacturer's instructions, except that 0.01 mg/mL final protein concentration was used in the assay.
Flow cytometry. Cells were harvested and counted (2×10^5 cells per condition). Cells were washed with 1% bovine serum albumin (BSA) in 1× Phosphated-buffered saline (PBS), and stained with the appropriate antibody (BD Pharmingen) for 1 hr at 4° C. The cells were then washed again and resuspended in 1% BSA in 1×PBS. BD Cytofix/Cytoperm™ kit was used for cell permeabilization before staining, such as LRP5/6 staining. […]

In the next assay the test system is β-catenin levels in CDCs. Kind of assay: Total β-catenin ELISA in CDCs. Format: cell-based, human. The method, then:
as §3
Referring to FIG. 10, the effect of BIO (as measured by sustained β-catenin activation per ELISA) was measured in CDCs from Donor10. Zero hour is immediately drug wash-off time point following a 72 hour of 5 μM BIO treatment period.
as §1, §2

The subject of assay [4] is mice with acute myocardial infarction. Put plainly: Mouse model of acute myocardial infarction, change in left ventricular ejection fraction (echocardiography). Format: in vivo, mouse (SCID beige). The note with it: 0.1 mg drug injected to heart; measured three weeks after surgery.
Experimental: Briefly, 8-week old male severe combined immunodeficient (SCID) beige mice were anesthetized with isoflurane. Following surgical preparation, a 2 cm vertical incision was performed in the midclavicular line for a lateral thoracotomy. The left anterior descending was ligated using 7-0 silk. Animals then received intramyocardial injections of injected at two peri-infarct sites with 10^5 cells (or phosphate buffered saline as a vehicle) in a total of 20 μl (10 μl/site). Echocardiography measurements were taken (to measure change left ventricular ejection fraction) at day 1 post and week 3 post infarction.
Acute myocardial infarction was applied to the three-month-old male severe combined immunodeficient (SCID)—beige mice as previously described. 1×10^5 desired cells or 20 μl of 14 mM drug (BIO or JW67) or exosomes were injected to the SCID heart for rescuing.
Echocardiography. Echocardiography study was performed in the SCID beige in 24 hr (baseline) and 3 weeks after surgery using Vevo 3100 or 770 Imaging System (Visual Sonics) as described^8. The average of the left ventricular ejection fraction was analyzed from multiple left ventricular end-diastolic and left ventricular end-systolic measurements.
In assay [5] the test system is CD90 expression in immortalized CDCs. Kind of assay: Flow cytometry of CD90 expression in immortalized CDCs. Format: cell-based, human. The settings on record: Wnt3a for 72 hours, vs vehicle. The method, then: Referring to FIG. 3-5, CDCs from immortalized Donor2 were plated on either fibronectin (FN; VWR, Cat. #356009)-coated or CellBIND® (CB)-coated flasks. Attached cells were treated with Wnt3a or with PBS vehicle (ddH2O) for 72 hours. The cells were then analyzed using flow cytometry for CD90 expression with the same protocol as described herein.
Flow cytometry. Cells were harvested and counted (2×10^5 cells per condition). Cells were washed with 1% bovine serum albumin (BSA) in 1× Phosphated-buffered saline (PBS), and stained with the appropriate antibody (BD Pharmingen) for 1 hr at 4° C. The cells were then washed again and resuspended in 1% BSA in 1×PBS. BD Cytofix/Cytoperm™ kit was used for cell permeabilization before staining, such as LRP5/6 staining. The flow cytometry was performed in BD FACSCanto™ II machine.

In the case of `O=C1Nc2cc(Br)ccc2/C1=C1/Nc2ccccc2/C1=N\O` [BIO, 6-bromoindirubin-3′-oxime], the β-catenin expression entry in assay [1] is reported as “equal or better enhanced β-catenin expression”. The β-catenin restoration entry in assay [2] is on record as “successful β-catenin restoration”; with β-catenin levels in CDCs (non-potent CDCs from Donor5, 10 μM BIO for 72 hours vs 0 μM) it was “successful β-catenin restoration”; in the assay with β-catenin levels in CDCs (non-potent CDCs from Donor6-2, 5 μM BIO for 72 hours vs control vehicle), “successful β-catenin restoration”. Also, the β-catenin levels entry in assay [3] is recorded as “further increases β-catenin levels”. The CD90 levels result in the assay on CD90 expression in CDCs (CDCs from Donor5, increasing BIO concentrations) is “decreasing CD90 levels with increasing BIO concentrations”. The “levels of β-catenin” value in the assay with β-catenin levels in CDCs (CDCs from Donor5, different concentrations of BIO for 72 hours) is “increased with increasing BIO concentration”. For the same molecule, in the assay on β-catenin levels in CDCs (CDCs from Donor10, after 72 hour 5 μM BIO treatment), the “time of peak β-catenin activation after drug washout” value is 24 h. The “duration of effect of BIO treatment after washout” value in the assay on β-catenin levels in CDCs (FIG. 10, β-catenin activation per ELISA) is on record as “at least 24 hours”. Further, in assay [4], the “cardiac recovery (cardiac ejection fraction change)” value is listed as “improves cardiac recovery”.
On to `O=C1Nc2ccccc2C12OCC1(CO2)COC2(OC1)C(=O)Nc1ccccc12` (centres unmarked) [JW67, Trispiro[3H-indole-3,2′-[1,3]dioxane-5′5″-[1,3]dioxane-2″,3′″-[3H]indole]-2,2′″(1H,1′″H)-dione(9Cl)], for which the “cardiac recovery (cardiac ejection fraction change)” value in assay [4] is “improves cardiac recovery”.
Regarding `Cc1cnc(-c2cnc(NCCNc3ccc(C#N)cn3)nc2-c2ccc(Cl)cc2Cl)[nH]1` [CHIR, 6-[[2-[[4-(2,4-Dichlorophenyl)-5-(5-methyl-1H-imidazol-2-yl)-2-pyrimidinyl]amino]ethyl]amino]-3-pyridinecarbonitrile], in the assay with CD90 expression in CDCs (30 μM CHIR for 72 hours, CDCs from Donor1 and Donor12, vs no treatment), the CD90 levels entry is “decreased the CD90 levels”.

B1: Wnt3a: activator of the Wnt signaling pathway (protein, UniProt P56704 19-352, looked up)
Protein Wnt-3a: SYPIWWSLAVGPQYSSLGSQPILCASIPGLVPKQLRFCRNYVEIMPSVAEGIKIGIQECQHQFRGRRWNCTTVHDSLAIFGPVLDKATRESAFVHAIASAGVAFAVTRSCAEGTAAICGCSSRHQGSPGKGWKWGGCSEDIEFGGMVSREFADARENRPDARSAMNRHNNEAGRQAIASHMHLKCKCHGLSGSCEVKTCWWSQPDFRAIGDFLKDKYDSASEMVVEKHRESRGWVETLRPRYTYFKVPTERDLVYYEASPNFCEPNPETGSFGTRDRTCNVSSHGIDGCDLLCCGRGHNARAERRREKCRCVFHWCCYVSCQECTRVYDVHTCK
Regarding B1, the CD90 level result is “no such effect is observed” in assay [5] (immortalized Donor2 CDCs on CellBIND (CB)-coated flasks) and “decreased the CD90 level” in assay [5] (immortalized Donor2 CDCs on fibronectin (FN)-coated flasks).
